Data reported in ChEMBL document CHEMBL3885881, “DrugMatrix”.

Species: Rattus norvegicus
Test: DrugMatrix - Regimen: Daily Repeat
Type: toxicity, organism-based, Sprague-Dawley
Parameters: regimen Daily Repeat, gender Male, age 6-8 weeks
Conditions: in vivo, po, route oral GAVAGE, vehicle .5 % CMC; for ABSOLUTE BASOPHIL / ABSOLUTE EOSINOPHIL / ABSOLUTE LYMPHOCYTE / ABSOLUTE MONOCYTE / ABSOLUTE SEGMENTED NEUTROPHIL / BASOPHIL / EOSINOPHIL / HEMATOCRIT / LEUKOCYTE COUNT / LYMPHOCYTE / MEAN CORPUSCULAR HEMOGLOBIN / MEAN CORPUSCULAR HEMOGLOBIN CONCENTRATION / MEAN CORPUSCULAR VOLUME / MONOCYTE / NEUTROPHIL / NUCLEATED RED BLOOD CELLS / PLATELET COUNT: tissue Blood; for ALANINE AMINOTRANSFERASE / ALBUMIN / ALKALINE PHOSPHATASE / ASPARTATE AMINOTRANSFERASE / BLOOD UREA NITROGEN / CARBON DIOXIDE / CHLORIDE / CHOLESTEROL / CREATININE / GLUCOSE / LACTATE DEHYDROGENASE / LIPASE / PHOSPHORUS / TOTAL BILIRUBIN / TOTAL PROTEIN / URIC ACID / SODIUM: tissue Plasma
[1] = 0 mg/kg, 72 h, dose level Control, time 3 day
[2] = 0 mg/kg, 120 h, dose level Control, time 5 day
[3] = 23 mg/kg, 72 h, dose level High, time 3 day

## Cc1cc2c(s1)Nc1ccccc1N=C2N1CCN(C)CC1 [OLANZAPINE]
[1]
  ABSOLUTE BASOPHIL: 0 CELLS/uL
  ABSOLUTE EOSINOPHIL: 47.67 CELLS/uL
  ABSOLUTE LYMPHOCYTE: 15937.67 CELLS/uL
  ABSOLUTE MONOCYTE: 138.33 CELLS/uL
  ABSOLUTE SEGMENTED NEUTROPHIL: 1443 CELLS/uL
  BASOPHIL: 0%
  EOSINOPHIL: 0.33%
  HEMATOCRIT: 34.43%
  LEUKOCYTE COUNT: 17.57 x10E3/uL
  LYMPHOCYTE: 90.33%
  MEAN CORPUSCULAR HEMOGLOBIN: 24.6 pg
  MEAN CORPUSCULAR HEMOGLOBIN CONCENTRATION: 38.88 G/DL
  MEAN CORPUSCULAR VOLUME: 63.27 fL
  MONOCYTE: 0.83%
  NEUTROPHIL: 8.5%
  NUCLEATED RED BLOOD CELLS: 0 /100WBC
  PLATELET COUNT: 1298 x10E3/uL
  ALANINE AMINOTRANSFERASE: 47.67 u/L
  ALBUMIN: 4.18 G/DL
  ALKALINE PHOSPHATASE: 398.5 u/L
  ASPARTATE AMINOTRANSFERASE: 93.17 u/L
  BLOOD UREA NITROGEN: 16 mg/dL
  CARBON DIOXIDE: 29.17 mmol/L
  CHLORIDE: 98.17 MEQ/L
  CHOLESTEROL: 68.83 mg/dL
  CREATININE: 0.14 mg/dL
  GLUCOSE: 151.67 mg/dL
  LACTATE DEHYDROGENASE: 597.5 u/L
  LIPASE: 9.33 u/L
  PHOSPHORUS: 11.97 mg/dL
  TOTAL BILIRUBIN: 0.18 mg/dL
  TOTAL PROTEIN: 5.82 G/DL
  URIC ACID: 1.48 mg/dL
[2]
  ABSOLUTE BASOPHIL: 0 CELLS/uL
  ABSOLUTE EOSINOPHIL: 31 CELLS/uL
  ABSOLUTE LYMPHOCYTE: 14327.83 CELLS/uL
  ABSOLUTE MONOCYTE: 102.83 CELLS/uL
  ABSOLUTE SEGMENTED NEUTROPHIL: 1321.67 CELLS/uL
  BASOPHIL: 0%
  EOSINOPHIL: 0.17%
  HEMATOCRIT: 36.1%
  LEUKOCYTE COUNT: 15.78 x10E3/uL
  LYMPHOCYTE: 90.5%
  MEAN CORPUSCULAR HEMOGLOBIN: 24.48 pg
  MEAN CORPUSCULAR HEMOGLOBIN CONCENTRATION: 39.22 G/DL
  MEAN CORPUSCULAR VOLUME: 62.4 fL
  MONOCYTE: 0.67%
  NEUTROPHIL: 8.67%
  NUCLEATED RED BLOOD CELLS: 0.17 /100WBC
  PLATELET COUNT: 1211.67 x10E3/uL
  ALANINE AMINOTRANSFERASE: 49 u/L
  ALBUMIN: 4.27 G/DL
  ALKALINE PHOSPHATASE: 356.67 u/L
  ASPARTATE AMINOTRANSFERASE: 90.17 u/L
  BLOOD UREA NITROGEN: 20.5 mg/dL
  CARBON DIOXIDE: 29.17 mmol/L
  CHLORIDE: 98 MEQ/L
  CHOLESTEROL: 69.83 mg/dL
  CREATININE: 0.21 mg/dL
  GLUCOSE: 149.83 mg/dL
  LACTATE DEHYDROGENASE: 322 u/L
  LIPASE: 10 u/L
  PHOSPHORUS: 12 mg/dL
  SODIUM: 142.8 MEQ/L
  TOTAL BILIRUBIN: 0.17 mg/dL
  TOTAL PROTEIN: 6.1 G/DL
  URIC ACID: 1.68 mg/dL
[3]
  ABSOLUTE BASOPHIL: 0 CELLS/uL
  ABSOLUTE EOSINOPHIL: 0 CELLS/uL
  ABSOLUTE LYMPHOCYTE: 12570 CELLS/uL
  ABSOLUTE MONOCYTE: 145.67 CELLS/uL
  ABSOLUTE SEGMENTED NEUTROPHIL: 851 CELLS/uL
  BASOPHIL: 0%
  EOSINOPHIL: 0%
  HEMATOCRIT: 37.27%
  LEUKOCYTE COUNT: 13.57 x10E3/uL
  LYMPHOCYTE: 92.67%
  MEAN CORPUSCULAR HEMOGLOBIN: 24.63 pg
  MEAN CORPUSCULAR HEMOGLOBIN CONCENTRATION: 39.1 G/DL
  MEAN CORPUSCULAR VOLUME: 63 fL
  MONOCYTE: 1%
  NEUTROPHIL: 6.33%
  NUCLEATED RED BLOOD CELLS: 0 /100WBC
  PLATELET COUNT: 1303 x10E3/uL
  ALANINE AMINOTRANSFERASE: 52 u/L
  ALBUMIN: 4.4 G/DL
  ALKALINE PHOSPHATASE: 415.67 u/L
  ASPARTATE AMINOTRANSFERASE: 84 u/L
  BLOOD UREA NITROGEN: 21.33 mg/dL
  CARBON DIOXIDE: 26.33 mmol/L
  CHLORIDE: 102 MEQ/L
  CHOLESTEROL: 86.67 mg/dL
  CREATININE: 0.21 mg/dL
  GLUCOSE: 155.67 mg/dL
  LACTATE DEHYDROGENASE: 203.33 u/L
  LIPASE: 9.67 u/L
  PHOSPHORUS: 11.47 mg/dL
  SODIUM: 144.27 MEQ/L
  TOTAL BILIRUBIN: 0.23 mg/dL
  TOTAL PROTEIN: 5.97 G/DL
  URIC ACID: 1.83 mg/dL
